From ChEMBL document CHEMBL5137028, “Progress and Challenges in Targeting the SARS-CoV-2 Papain-like Protease” (J Med Chem, 2022)

System: SARS-CoV-2
Assay: Antiviral activity against SARS-CoV-2 nCoV-2019BetaCoV/Wuhan/WIV04/2019 infected in African green monkey Vero E6 cells assessed as viral growth inhibition pretreated for 1 hr followed by infection at MOI of 0.01 and replacement of fresh medium containing compound measured after 24 hrs by plaque reduction assay
Format: functional, organism-based
Conditions: Severe acute respiratory syndrome coronavirus 2, nCoV-2019BetaCoV/Wuhan/WIV04/2019, Vero C1008

Row | SMILES | EC50
1 | C[C@H]1COC2=C1C(=O)C(=O)c1c2ccc2c1CCCC2(C)C [CRYPTOTANSHINONE] | 0.7 µM
2 | Cc1coc2c1C(=O)C(=O)c1c-2ccc2c(C)cccc12 [TANSHINONE I] | 2.26 µM
3 | COCC[n+]1c2c(n(Cc3cnccn3)c1C)C(=O)c1ccccc1C2=O [SEPANTRONIUM BROMIDE] | 0.17 µM
